Source: patent US20260226079A1, “A STRATEGY FOR THE SELECTIVE REMOVAL OF MRI CONTRAST AGENTS” (Portland State University, priority 2023, published 2026)
Marks after values point to notes of the source that are not given here. Each block holds one compound with its values, some of them ahead of it.

Key:
[1] = SPAAC selective interception of GdDO3A-DBCO monoamide chelate on azide terminated PS beads, Gd in supernatant by ICP-MS; conditions: for % Gd Remaining: 50° C., 1,000 rpm, 24 hours
Experimental: To address potential stability issues associated with the GdTTHA-Alkyne and azide-PS beads system, tri-acetate mono-amide chelate systems were tested, that may experience fewer experimental difficulties. The initial SPAAC reactions were carried out with GdDO3A-DBCO monoamide chelate and azide terminated bead (FIG. 13). The Gd^3+ concentration was temporally monitored in the supernatant to gain a sense of reaction kinetics and optimal reaction times. To avoid mechanical stirring, a temperature-controlled thermomixer was used which mixed through agitation and was capable of batch testing. And the reaction was analyzed by ICP-MS.
All experiments were performed on a 100 mg bead scale with 0.5 equivalents of GdDO3A-DBCO monoamide chelate in water (1 mL) agitated at 1,000 rpm and 50° C. […] were selected: 3 minutes, 3 hours, 6 hours, 9 hours and 24 hours. The reactions were stopped at their respective time point, the sample was centrifuged and the supernatant was decanted and filtered. The beads were washed and centrifuged three times before the filtered supernatant was freeze dried and digested in HNO3 for ICP-MS analysis.
The effect of pH at relevant pH ranges of urine (~4.5-8) on the efficiency of Gd removal was investigated. Additionally, the role of an organic cosolvent was investigated to determine whether the aqueous medium is a limiting factor in efficiency. A pH range of 5-9 was tested with 1:1 v:v DMSO:H2O at 50° C. stirring at 1,000 rpm for 24 hours. The reaction mixtures were centrifuged, and the supernatant was decanted and filtered. The beads were washed and centrifuged in triplicate and the supernatants were freeze dried and digested for ICP-MS analysis, data summarized below in Table 1.
A multivariate approach was designed to establish the interaction between various levels of cosolvent volume, reaction time and temperature. The volume of DMSO was lowered with the hope of identifying other contributing factors that would lead to an enhanced outcome using a minimal amount of organic cosolvent. Additionally, the temperature ranged from 25° C. to 50° C. and the reaction time was assessed over 0.5 hours and 24 hours, and at pH 7. The scale of the beads and GdDO3A-DBCO monoamide chelate remained the same as previous trials at a 100 mg scale with 0.5 equivalents of GBCA while mixing at 1,000 rpm. The beads were centrifuged, washed, and digested in nitric acid for ICP-MS analysis using the methods described previously, results summarized below in Table 2.
Following the suboptimal results from previous trials with a smaller volume of DMSO cosolvent, the range of added cosolvent was increased to 50% v:v. Additionally, a simulated urine matrix, Surine™, was added to test if there were any significant effects from any urine constituents on the reaction efficiency. The experiments were run with variable reaction times, matrix and percentage DMSO at pH 7 and 37° C.

[2] = 1H NMRD relaxivity profiles and parametric fitting (SBM / Lipari-Szabo); format: physicochemical; parameters: ^298D: unit not given here; conditions: for ^22r1 (298K), relaxivity: 20 MHz; for ^22r1 (298K), relaxivity / ER / Δ^2 / τRG, global rotational correlation time constant / τV: pH 7.0 (N3), pH 6.8 (DBCO); for EV / ^298D / a / q / r: fixed during fitting
Experimental: FIG. 19 is a plot illustrating the GdDO3A-DBCO monoamide ^1H NMRD profiles at 283 (blue, top line), 298 (black, middle line) and 310 K (red, lower line), measured at pH 6.8, and a Gd^3+ concentration of 1.32 mM.
FIG. 21 is a plot illustrating the GdDO3A-azido monoamide ^1H NMRD profiles at 283 (blue, top line), 298 (black, middle line) and 310 K (red, lower line), measured at pH 7.0.
(§1) Previous work by the inventors has shown that chelates functionalized with bulky aromatic groups have the propensity to self-associate in solution. […] The most common methods to determine the physico-chemical properties described by SBM theory are through fittings of experimental data obtained from the reduced ^17O transverse relaxation rate, R2p, as a function of temperature and relaxivity, ri, as a function of proton Larmor frequency i.e. nuclear magnetic resonance dispersion (NMRD) profiles.
The NMRD profiles of GBCAs are used to characterize several important physico-chemical parameters described by SBM theory. The most influential parameter which affects the shape of an NMRD curve is the rotational correlation time constant (τR) of the complex. Macromolecular species which tumble slowly impart a positive impact on relaxivity at all fields, but particularly at high fields presented as a characteristic “hump” in the 10-60 MHz region, distinct from quickly tumbling chelates in which relaxivity continues to decrease with increasing field strength. The molecular weight of the GdDO3A-DBCO monoamide would not be considered a large macromolecular structure; any indication of a slowly tumbling complex would be indicative of an aggregate species which we hypothesized as the self-associating chelate. As shown below in FIG. 19, relaxivity is quite high in low field regions where electronic spin relaxation contributes, followed by a characteristic dispersion around 1 MHz when the contribution drops off. There is a “hump” around 20 MHz which is indicative of a slowly tumbling species, consistent with a self-associating chelate. This macromolecular structure is the source of a rather high relaxivity of 7.1 mM^−1s^−1 (20 MHz, pH 6.8, 298 K) in comparison to most clinical agents which remain in the 4 mM^−1 s^−1-5 mM^−1s^−1 range.
The global and local rotational correlation time constants were 375 ps and 107 ps, respectively. […] This further corroborated the presence of a self-association which led to a decrease in the efficiency observed in selective interception trials.
The dispersion at 1-10 MHz corresponded to a typical drop-off of the electronic spin relaxation contribution, followed by continued decrease in relaxivity with increasing field strength. There was no evidence of a slowly tumbling structure which was reflected in a standard parametric fitting procedure with one discrete rotational contribution.

[3] = Temperature-dependent 17O R2p transverse relaxation rate (67.8 MHz, 11.74 T) and fitting; format: physicochemical; conditions: for τM, water residence lifetime / AO/h / Δ HM: fitted; for τM, water residence lifetime: pH 7.0 (GdDO3A-N3-monoamide), pH 6.8 (GdDO3A-DBCO-monoamide); for AO/h / Δ HM: pH 7.0 (N3), pH 6.8 (DBCO)
Experimental: FIG. 18 is a plot illustrating the GdDO3A-DBCO monoamide temperature-dependent R2p relaxation rate of ^17O measured at 67.8 MHz (11.74 T) pH 6.8, and a Gd^3+ concentration of 6.5 mM.
FIG. 20 is a plot illustrating the GdDO3A-azido monoamide temperature-dependent R2p relaxation rate of ^17O measured at 67.8 MHz (11.74 T) pH 7.0, and a Gd^3+ concentration of 8.5 mM.
as §1
Analysis of the reduced transverse relaxation rate constant of ^17O (R2p) as a function of temperature is the most common experimental technique to determine water residence lifetime, τM. The function typically resembles a bell curve where the inflection point temperature is an indicator of water exchange kinetics. The experiments were performed at a pH of 6.8 and a Gd^3+ concentration of 6.5 mM. Precipitation was observed below 295 K. The ^17O curve reached an inflection point at about 310 K, and the fitted value of τM was 545 ns, comparatively slow in the context of achieving high relaxivities but fast enough that exchange is in the fast exchange regime and rl is sensitive to changes in molecular tumbling, […].
Unsurprisingly, the shape is nearly identical to the DBCO-containing counterpart; both are monoamides and a similar water exchange rate would be expected. In this case, the water residence lifetime time constant (τM) was equivalent to the DBCO ligand at 545 ns.

[4] = SPAAC selective interception of GdDO3A-azido monoamide chelate on DBCO-PS beads, Gd by ICP-MS; conditions: pH 7, 37° C.
Experimental: The GdDO3A-azido monoamide chelate and DBCO-PS beads shown in FIG. 15 were utilized in a similar experiment described previously. Due to the expensive DBCO starting material, the beads were generated on small scales. Accordingly, the scales of the experiments were reduced to 50 mg bead starting material and 0.5 equivalents of GBCA consistent with the loading capacity determined for each batch of DBCO-PS. All other conditions remained constant (1 mL reaction volume, 37° C., 1,000 rpm mixing at pH 7). Samples were prepared for ICP-MS analysis using the same method as previously described with fewer dilutions. The experiments were run with variable reaction times, matrix, and percentage DMSO.

[5] = 20 MHz and 298 K, comparison value; cited from earlier work
[6] = fitted, Lipari-Szabo approach, pH 6.8

Gd Remaining (%) ([1]; Entry 1: 0.5 hr, Water, 0% DMSO, pH 7, 37° C.): 27%
Gd Remaining (%) ([1]; Entry 1: cosolvent 0 μL, 25 °C, 0.5 hr, pH 7): 71%
Gd Remaining (%) ([1]; Entry 2: 0.5 hr, Water, 50% DMSO, pH 7, 37° C.): 28%
Gd Remaining (%) ([1]; Entry 2: cosolvent 0 μL, 25 °C, 24 hr, pH 7): 70%
Gd Remaining (%) ([1]; Entry 3: 8 hr, Water, 0% DMSO, pH 7, 37° C.): 27%
Gd Remaining (%) ([1]; Entry 3: cosolvent 100 μL, 25 °C, 0.5 hr, pH 7): 68%
Gd Remaining (%) ([1]; Entry 4: 8 hr, Water, 50% DMSO, pH 7, 37° C.): 18%
Gd Remaining (%) ([1]; Entry 4: cosolvent 100 μL, 25 °C, 24 hr, pH 7): 69%
Gd Remaining (%) ([1]; Entry 5: 0.5 hr, Surine, 0% DMSO, pH 7, 37° C.): 28%
Gd Remaining (%) ([1]; Entry 5: cosolvent 0 μL, 50 °C, 0.5 hr, pH 7): 67%
Gd Remaining (%) ([1]; Entry 6: 0.5 hr, Surine, 50% DMSO, pH 7, 37° C.): 29%
Gd Remaining (%) ([1]; Entry 6: cosolvent 0 μL, 50 °C, 24 hr, pH 7): 65%
Gd Remaining (%) ([1]; Entry 7: 8 hr, Surine, 0% DMSO, pH 7, 37° C.): 30%
Gd Remaining (%) ([1]; Entry 7: cosolvent 100 μL, 50 °C, 0.5 hr, pH 7): 69%
Gd Remaining (%) ([1]; Entry 8: 8 hr, Surine, 50% DMSO, pH 7, 37° C.): 20%
Gd Remaining (%) ([1]; Entry 8: cosolvent 100 μL, 50 °C, 24 hr, pH 7): 67%
% Gd Remaining ([1]; pH 5, 1:1 v:v DMSO:H2O): 1.64%
% Gd Remaining ([1]; pH 7, 1:1 v:v DMSO:H2O): 2%
% Gd Remaining ([1]; pH 9, 1:1 v:v DMSO:H2O): 1.6%
^22r1 (298K), relaxivity [2]: 7.1 mM⁻¹ s⁻¹
aggregate rotates more slowly than the discrete chelate (global vs local rotation), fold ([2]; Lipari-Szabo fitting): over 3 ×
S^□ [2, 6]: 0.36
τRL, local rotational correlation time constant [2, 6]: 107 ps
ER ([2]; fitted): 4.78 kcal/mol
Δ^2 ([2]; fitted): 3.5 10^19 s^−2
τRG, global rotational correlation time constant ([2]; fitted): 375 ps
τV ([2]; fitted): 13 ps
EV [2]: 1.0^a kJ mol^−1
^298D [2]: 2.24
a [2]: 4.0^a Å
q [2]: 1^a
r [2]: 3.0^a Å
τM, water residence lifetime [3]: 545 ns
AO/h [3]: −3.0 10^6 rad s^−1
Δ HM [3]: 11 kcal/mol
inflection point of 17O R2p curve ([3]; pH 6.8, Gd^3+ 6.5 mM): about 310 K
temperature below which precipitation was observed ([3]; pH 6.8, Gd^3+ 6.5 mM): below 295 K
Structure (SMILES): O=C([O-])CN1CCN(CC(=O)[O-])CCN(CC(=O)NCCC(=O)N2Cc3ccccc3C#Cc3ccccc32)CCN(CC(=O)[O-])CC1.[Gd+3] [GdDO3A-DBCO monoamide]
second order rate constant of interception reaction ([1]; extrapolated from integrated second order rate law, FIG. 14): 48.4 M⁻¹ s⁻¹

Gd Remaining (%) ([4]; Entry 1: 0.5 hr, Water, 0% DMSO): 39%
Gd Remaining (%) ([4]; Entry 2: 0.5 hr, Water, 50% DMSO): 36%
Gd Remaining (%) ([4]; Entry 3: 8 hr, Water, 0% DMSO): 40%
Gd Remaining (%) ([4]; Entry 4: 8 hr, Water, 50% DMSO): 35%
Gd Remaining (%) ([4]; Entry 5: 0.5 hr, Surine, 0% DMSO): 27%
Gd Remaining (%) ([4]; Entry 6: 0.5 hr, Surine, 50% DMSO): 37%
Gd Remaining (%) ([4]; Entry 7: 8 hr, Surine, 0% DMSO): 39%
Gd Remaining (%) ([4]; Entry 8: 8 hr, Surine, 50% DMSO): 38%
^22r1 (298K), relaxivity [2]: 4.7 mM⁻¹ s⁻¹
ER ([2]; fitted): 4.28 kcal/mol
Δ^2 ([2]; fitted): 5.7 10^19 s^−2
τRG, global rotational correlation time constant ([2]; fitted): 70 ps
τV ([2]; fitted): 8.4 ps
EV [2]: 1.0^a kJ mol^−1
^298D [2]: 2.24
a [2]: 4.0^a Å
q [2]: 1^a
r [2]: 3.0^a Å
τM, water residence lifetime [3]: 545 ns
AO/h [3]: −3.2 10^6 rad s^−1
Δ HM [3]: 11 kcal/mol
Structure (SMILES): [Gd+3].[N-]=[N+]=NCCCNC(=O)CN1CCN(CC(=O)[O-])CCN(CC(=O)[O-])CCN(CC(=O)[O-])CC1 [GdDO3A-azido monoamide]

Structure (SMILES): O=C([O-])CN1CCN(CC(=O)[O-])CCN(CC(=O)O)CCN(CC(=O)[O-])CC1.[Gd+3] [GdDOTA]
relaxivity [5]: 4.5 mM⁻¹ s⁻¹
